# Assay results from PubChem BioAssay AID1963867 (Molecular Pharmacology Branch, DTP, NCI, 2024).
# Active and inactive are the calls of the source. Rule for the calls: active = viability on the fitted dose curve at most 10% of control; inactive = the rest.
# Tested on: KRAS-mutant PDC tumor spheroid with HUVEC/MSC, viability
# Assay: Anticancer human tumor 327498-153-R-J2-PDC patient-derived uterine carcinosarcoma cell line growth inhibition [KRAS2]
# Conditions: for IC50: curve of first compound; for viability, T/C: stronger effect = lower value
# Method in brief: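 KRAS-mutant tumor cells were grown as spheroids with HUVEC endothelial cells and human MSCs as stroma. Targeted agents were tested alone and with KRAS pathway inhibitors. Doses started at or near clinical Cmax, or 10 microM, descending half-log.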
# [1] = second compound 0.1 µM, first compound 0.000316 µM
# [2] = second compound 0.1 µM, first compound 0.001 µM
# [3] = second compound 0.1 µM, first compound 0.00316 µM
# [4] = second compound 0.1 µM, first compound 0.01 µM
# [5] = second compound 0.1 µM, first compound 0.0316 µM
# [6] = second compound 0.316 µM, first compound 0.000316 µM
# [7] = second compound 0.316 µM, first compound 0.001 µM
# [8] = second compound 0.316 µM, first compound 0.00316 µM
# [9] = second compound 0.316 µM, first compound 0.01 µM
# [10] = second compound 0.316 µM, first compound 0.0316 µM
# [11] = second compound 1 µM, first compound 0.000316 µM
# [12] = second compound 1 µM, first compound 0.001 µM
# [13] = second compound 1 µM, first compound 0.00316 µM
# [14] = second compound 1 µM, first compound 0.01 µM
# [15] = second compound 1 µM, first compound 0.0316 µM
# [16] = second compound 3.16 µM, first compound 0.000316 µM
# [17] = second compound 3.16 µM, first compound 0.001 µM
# [18] = second compound 3.16 µM, first compound 0.00316 µM
# [19] = second compound 3.16 µM, first compound 0.01 µM
# [20] = second compound 3.16 µM, first compound 0.0316 µM
# [21] = second compound 10 µM, first compound 0.000316 µM
# [22] = second compound 10 µM, first compound 0.001 µM
# [23] = second compound 10 µM, first compound 0.00316 µM
# [24] = second compound 10 µM, first compound 0.01 µM
# [25] = second compound 10 µM, first compound 0.0316 µM
# [26] = second compound 0.1 µM, first compound 0.1 µM
# [27] = second compound 0.316 µM, first compound 0.1 µM
# [28] = second compound 1 µM, first compound 0.1 µM
# [29] = second compound 3.16 µM, first compound 0.1 µM
# [30] = second compound 10 µM, first compound 0.1 µM
# 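Throughout, for IC50: spheroids exposed to agents for seven days before reading.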
# 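Throughout, for viability, T/C: spheroids exposed to agents for seven days before reading; 100% = DMSO vehicle wells so lower means fewer viable cells.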
structure (smiles),measurement,setting,value
CC(=O)Nc1cccc(-n2c(=O)n(C3CC3)c(=O)c3c(Nc4ccc(I)cc4F)n(C)c(=O)c(C)c32)c1 + CC1OCC2(CCN(c3cnc(Sc4ccnc(N)c4Cl)c(N)n3)CC2)C1N,IC50,second compound 0.1 µM,1.66 nM
same,IC50,second compound 0.316 µM,0.493 nM
same,IC50,second compound 1 µM,< 0.1 nM
same,IC50,second compound 3.16 µM,< 0.1 nM
same,IC50,second compound 10 µM,< 0.1 nM
same,"viability, T/C","second compound 0.1 µM, first compound 0.0001 µM",75.2%
same,"viability, T/C",[1],58.4%
same,"viability, T/C",[2],50.2%
same,"viability, T/C",[3],46.5%
same,"viability, T/C",[4],44.7%
same,"viability, T/C",[5],26.3%
same,"viability, T/C","second compound 0.316 µM, first compound 0.0001 µM",52.7%
same,"viability, T/C",[6],52.4%
same,"viability, T/C",[7],48.2%
same,"viability, T/C",[8],40.8%
same,"viability, T/C",[9],35%
same,"viability, T/C",[10],22.8%
same,"viability, T/C","second compound 1 µM, first compound 0.0001 µM",41%
same,"viability, T/C",[11],35.2%
same,"viability, T/C",[12],34.9%
same,"viability, T/C",[13],29.7%
same,"viability, T/C",[14],26.8%
same,"viability, T/C",[15],16.1%
same,"viability, T/C","second compound 3.16 µM, first compound 0.0001 µM",31.1%
same,"viability, T/C",[16],26.9%
same,"viability, T/C",[17],22.1%
same,"viability, T/C",[18],22.1%
same,"viability, T/C",[19],17.2%
same,"viability, T/C",[20],13.1%
same,"viability, T/C","second compound 10 µM, first compound 0.0001 µM",22.8%
same,"viability, T/C",[21],21.3%
same,"viability, T/C",[22],21.6%
same,"viability, T/C",[23],15.8%
same,"viability, T/C",[24],13.9%
same,"viability, T/C",[25],11.3%
CC(=O)OC12COC1CC(O)C1(C)C(=O)C(O)C3=C(C)C(OC(=O)C(O)C(NC(=O)OC(C)(C)C)c4ccccc4)CC(O)(C(OC(=O)c4ccccc4)C21)C3(C)C (stereo not given) + CC1OCC2(CCN(c3cnc(Sc4ccnc(N)c4Cl)c(N)n3)CC2)C1N,IC50,second compound 0.1 µM,< 10 nM
same,IC50,second compound 0.316 µM,< 10 nM
same,IC50,second compound 1 µM,< 10 nM
same,IC50,second compound 3.16 µM,< 10 nM
same,IC50,second compound 10 µM,< 10 nM
same,"viability, T/C",[4],7.15%
same,"viability, T/C",[5],5.15%
same,"viability, T/C",[26],5.38%
same,"viability, T/C","second compound 0.1 µM, first compound 0.316 µM",6.78%
same,"viability, T/C","second compound 0.1 µM, first compound 1 µM",9.97%
same,"viability, T/C","second compound 0.1 µM, first compound 3.16 µM",11.7%
same,"viability, T/C",[9],7.22%
same,"viability, T/C",[10],4.87%
same,"viability, T/C",[27],5.16%
same,"viability, T/C","second compound 0.316 µM, first compound 0.316 µM",6.51%
same,"viability, T/C","second compound 0.316 µM, first compound 1 µM",8.59%
same,"viability, T/C","second compound 0.316 µM, first compound 3.16 µM",12.2%
same,"viability, T/C",[14],8.68%
same,"viability, T/C",[15],6.9%
same,"viability, T/C",[28],11%
same,"viability, T/C","second compound 1 µM, first compound 0.316 µM",6.11%
same,"viability, T/C","second compound 1 µM, first compound 1 µM",8.45%
same,"viability, T/C","second compound 1 µM, first compound 3.16 µM",11.8%
same,"viability, T/C",[19],6.83%
same,"viability, T/C",[20],6.18%
same,"viability, T/C",[29],5.94%
same,"viability, T/C","second compound 3.16 µM, first compound 0.316 µM",6.88%
same,"viability, T/C","second compound 3.16 µM, first compound 1 µM",9.05%
same,"viability, T/C","second compound 3.16 µM, first compound 3.16 µM",10.5%
same,"viability, T/C",[24],12.6%
same,"viability, T/C",[25],6.42%
same,"viability, T/C",[30],9.06%
same,"viability, T/C","second compound 10 µM, first compound 0.316 µM",5.82%
same,"viability, T/C","second compound 10 µM, first compound 1 µM",10.8%
same,"viability, T/C","second compound 10 µM, first compound 3.16 µM",10.4%
CN(C)C/C=C/C(=O)Nc1cc2c(Nc3ccc(F)c(Cl)c3)ncnc2cc1O[C@H]1CCOC1 + CC1OCC2(CCN(c3cnc(Sc4ccnc(N)c4Cl)c(N)n3)CC2)C1N,IC50,second compound 0.1 µM,> 100 nM
same,IC50,second compound 0.316 µM,> 100 nM
same,IC50,second compound 1 µM,> 100 nM
same,IC50,second compound 3.16 µM,< 0.316 nM
same,IC50,second compound 10 µM,0.428 nM
same,"viability, T/C",[1],75.6%
same,"viability, T/C",[2],82%
same,"viability, T/C",[3],71%
same,"viability, T/C",[4],71%
same,"viability, T/C",[5],69.3%
same,"viability, T/C",[26],56.4%
same,"viability, T/C",[6],62.8%
same,"viability, T/C",[7],60.4%
same,"viability, T/C",[8],53.5%
same,"viability, T/C",[9],53.1%
same,"viability, T/C",[10],51.2%
same,"viability, T/C",[27],53%
same,"viability, T/C",[11],106%
same,"viability, T/C",[12],109%
same,"viability, T/C",[13],103%
same,"viability, T/C",[14],104%
same,"viability, T/C",[15],99%
same,"viability, T/C",[28],91.7%
same,"viability, T/C",[16],44%
same,"viability, T/C",[17],42.1%
same,"viability, T/C",[18],37%
same,"viability, T/C",[19],40.7%
same,"viability, T/C",[20],32.7%
same,"viability, T/C",[29],31.9%
same,outcome,[21],inactive
same,outcome,[22],inactive
same,"viability, T/C",[23],44%
same,outcome,[24],inactive
same,"viability, T/C",[25],37.3%
same,"viability, T/C",[30],33.5%
